From patent US20240132485A1, “HETEROCYCLIC CULLIN RING UBIQUITIN LIGASE COMPOUNDS AND USES THEREOF” (CEMM - FORSCHUNGSZENTRUM FÜR MOLEKULARE MEDIZIN GMBH, priority 2020, published 2024)
pEC50: −log10 of the molar value.

Columns and labels:
[1] = tested on: KBM7 cells harboring a hypomorphic UBE2M mutation; test: KBM7 CTG EC50 assay (UBE2M knock-out); type: cell-based; settings: Homo sapiens, KBM-7; 72 h incubation, CellTiter-Glo; read-out: KBM7 CTG EC50 (UBE2M knock-out) Activity Class
Procedure, shortened: (§1)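 Wild-type KBM7 cells, or KBM7 cells with a hypomorphic UBE2M mutation that impairs Cullin-RING ligase activity, were treated for 72 h with compounds in a 10-point, 1:4 titration (0 to 20 μM). Viability was read by CellTiter-Glo 2.0 luminescence.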

[2] = target: T1, DDB1-CDK12/Cyclin K ternary complex (Homo sapiens, UniProt Q16531+Q9NYV4); test: NanoBRET EC50 assay (HaloTag_CDK12 / NanoLuc_DDB1 in HEK293T); type: cell-based
T1 construct: expressed in transfected cells; host or cells: HEK293T wildtype cells, transient PEI transfection
T1 sequence (Q9NYV4 whole entry): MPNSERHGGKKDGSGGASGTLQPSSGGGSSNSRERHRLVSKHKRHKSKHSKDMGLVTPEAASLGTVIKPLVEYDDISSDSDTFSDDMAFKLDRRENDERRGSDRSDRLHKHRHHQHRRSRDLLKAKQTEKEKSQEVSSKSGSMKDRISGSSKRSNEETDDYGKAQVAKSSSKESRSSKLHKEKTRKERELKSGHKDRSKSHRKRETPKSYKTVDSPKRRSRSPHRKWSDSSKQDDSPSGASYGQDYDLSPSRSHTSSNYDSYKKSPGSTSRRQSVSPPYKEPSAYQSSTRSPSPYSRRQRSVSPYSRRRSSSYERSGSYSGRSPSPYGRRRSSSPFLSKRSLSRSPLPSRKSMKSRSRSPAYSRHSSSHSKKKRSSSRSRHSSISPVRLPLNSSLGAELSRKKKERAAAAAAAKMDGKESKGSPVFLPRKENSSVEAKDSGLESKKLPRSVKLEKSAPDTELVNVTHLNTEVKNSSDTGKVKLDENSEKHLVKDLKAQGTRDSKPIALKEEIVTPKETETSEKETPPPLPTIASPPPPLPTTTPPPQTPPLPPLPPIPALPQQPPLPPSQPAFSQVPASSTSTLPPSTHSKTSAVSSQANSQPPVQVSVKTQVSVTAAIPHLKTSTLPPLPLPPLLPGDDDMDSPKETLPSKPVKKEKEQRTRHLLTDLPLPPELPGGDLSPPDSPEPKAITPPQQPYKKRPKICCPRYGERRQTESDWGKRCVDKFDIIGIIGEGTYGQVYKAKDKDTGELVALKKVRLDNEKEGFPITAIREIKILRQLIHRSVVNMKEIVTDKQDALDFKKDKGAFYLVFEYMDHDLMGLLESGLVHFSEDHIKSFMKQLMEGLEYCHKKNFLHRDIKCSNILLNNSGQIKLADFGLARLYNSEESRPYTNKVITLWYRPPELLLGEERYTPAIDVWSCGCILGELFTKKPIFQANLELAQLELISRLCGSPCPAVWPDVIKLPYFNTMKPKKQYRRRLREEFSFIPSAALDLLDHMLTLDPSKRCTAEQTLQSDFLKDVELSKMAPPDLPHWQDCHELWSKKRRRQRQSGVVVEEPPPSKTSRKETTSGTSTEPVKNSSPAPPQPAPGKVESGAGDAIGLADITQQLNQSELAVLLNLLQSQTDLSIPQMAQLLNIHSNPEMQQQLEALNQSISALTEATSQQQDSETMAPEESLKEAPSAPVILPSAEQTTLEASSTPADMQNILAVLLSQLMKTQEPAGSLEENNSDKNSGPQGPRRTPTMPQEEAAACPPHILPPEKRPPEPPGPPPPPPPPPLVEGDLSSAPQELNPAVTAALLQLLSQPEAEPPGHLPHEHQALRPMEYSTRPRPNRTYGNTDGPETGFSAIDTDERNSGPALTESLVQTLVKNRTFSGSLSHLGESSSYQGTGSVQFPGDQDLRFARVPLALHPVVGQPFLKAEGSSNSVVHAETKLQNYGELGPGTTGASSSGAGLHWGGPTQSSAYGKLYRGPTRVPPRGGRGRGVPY
T1 sequence (Q16531 whole entry): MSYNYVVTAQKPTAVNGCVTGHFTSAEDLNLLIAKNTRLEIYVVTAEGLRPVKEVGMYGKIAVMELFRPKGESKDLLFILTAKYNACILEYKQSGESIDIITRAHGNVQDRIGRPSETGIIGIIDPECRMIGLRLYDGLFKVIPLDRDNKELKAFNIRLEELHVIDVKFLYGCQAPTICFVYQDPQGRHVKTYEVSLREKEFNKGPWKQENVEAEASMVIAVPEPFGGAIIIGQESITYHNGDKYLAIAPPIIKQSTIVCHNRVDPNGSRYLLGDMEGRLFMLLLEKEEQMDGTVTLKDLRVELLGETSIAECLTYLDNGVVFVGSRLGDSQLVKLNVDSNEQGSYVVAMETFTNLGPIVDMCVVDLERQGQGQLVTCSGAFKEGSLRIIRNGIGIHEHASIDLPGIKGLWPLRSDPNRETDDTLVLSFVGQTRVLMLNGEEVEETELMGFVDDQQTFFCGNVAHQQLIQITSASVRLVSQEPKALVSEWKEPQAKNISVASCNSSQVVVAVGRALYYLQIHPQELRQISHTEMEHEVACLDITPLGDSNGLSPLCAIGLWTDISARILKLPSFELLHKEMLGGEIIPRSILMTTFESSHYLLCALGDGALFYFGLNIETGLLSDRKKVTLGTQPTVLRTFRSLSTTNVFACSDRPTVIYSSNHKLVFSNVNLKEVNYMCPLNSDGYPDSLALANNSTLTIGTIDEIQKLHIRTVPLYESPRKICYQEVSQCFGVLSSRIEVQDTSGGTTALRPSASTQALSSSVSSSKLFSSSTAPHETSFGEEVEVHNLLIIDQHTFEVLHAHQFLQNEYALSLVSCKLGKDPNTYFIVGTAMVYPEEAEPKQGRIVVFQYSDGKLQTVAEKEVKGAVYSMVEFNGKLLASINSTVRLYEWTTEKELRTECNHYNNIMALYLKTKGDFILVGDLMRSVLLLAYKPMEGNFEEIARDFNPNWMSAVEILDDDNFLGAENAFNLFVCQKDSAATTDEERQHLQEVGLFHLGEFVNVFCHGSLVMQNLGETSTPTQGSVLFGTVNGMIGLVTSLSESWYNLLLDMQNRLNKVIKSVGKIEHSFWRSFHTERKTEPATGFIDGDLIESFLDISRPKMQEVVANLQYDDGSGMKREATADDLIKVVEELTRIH
T1 sequence (O75909 whole entry partner): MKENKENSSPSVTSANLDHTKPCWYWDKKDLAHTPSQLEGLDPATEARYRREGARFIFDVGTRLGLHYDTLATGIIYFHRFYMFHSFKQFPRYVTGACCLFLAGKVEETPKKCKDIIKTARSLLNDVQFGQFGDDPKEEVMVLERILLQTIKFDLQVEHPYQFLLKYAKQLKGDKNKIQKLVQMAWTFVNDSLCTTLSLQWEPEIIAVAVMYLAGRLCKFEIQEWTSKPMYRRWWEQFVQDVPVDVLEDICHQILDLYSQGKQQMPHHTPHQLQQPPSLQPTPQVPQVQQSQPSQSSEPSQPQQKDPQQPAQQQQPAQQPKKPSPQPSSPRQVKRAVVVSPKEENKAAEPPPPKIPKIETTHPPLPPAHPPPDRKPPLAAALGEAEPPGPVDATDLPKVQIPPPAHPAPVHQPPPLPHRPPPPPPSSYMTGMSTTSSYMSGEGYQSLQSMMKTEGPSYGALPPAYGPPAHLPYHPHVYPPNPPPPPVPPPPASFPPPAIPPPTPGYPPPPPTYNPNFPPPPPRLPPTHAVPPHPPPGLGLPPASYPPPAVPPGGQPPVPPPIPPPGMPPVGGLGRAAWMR
Procedure, shortened: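 DDB1–CDK12/Cyclin K recruitment measured by NanoBRET in HEK293T transiently co-transfected with HaloTag_CDK12 and NanoLuc_DDB1 and labelled overnight with 100 nM HaloTag 618 ligand. Compounds titrated 10-point, 1:4 from 20 μM, 10 min at room temperature. Donor 460 nm and acceptor 647 nm emission read after Nano-Glo substrate.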

CCNK = test: NanoLuc-CCNK degradation assay (HEK293T_Nluc_CCNK-tagged cells); type: cell-based; settings: 4 h incubation, HEK293T_Nluc_CCNK-tagged cells; read-out: NanoLuc-CCNK degradation DC50 Activity Class
Procedure, shortened: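 HEK293T cells with nanoluciferase knocked in at the N-terminus of endogenous CCNK (CRISPR) exposed to a 10-point titration (0 to 10 μM, 1:4) in Opti-MEM I + 4% FBS for 4 h. Nano-Glo substrate then added and luminescence read as a measure of Cyclin K abundance.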

[3] = target: T1, DDB1-CDK12/Cyclin K ternary complex; test: NanoBRET fold-change assay (HaloTag_CDK12 / NanoLuc_DDB1 in HEK293T); type: cell-based; settings: 10 μM compound, 10 minutes
Procedure, shortened: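 HEK293T cells transiently co-transfected with HaloTag_CDK12 and NanoLuc_DDB1, labelled overnight with 100 nM HaloTag 618 ligand (DMSO no-ligand control), then treated with compound at 10 μM final for 10 min at room temperature. BRET read as 460 nm donor and 647 nm acceptor emission after Nano-Glo substrate; reported as fold change.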

[4] = target: T2, Cdk12 (696-1,082)/CycK (1-267) protein complex (Homo sapiens, UniProt Q9NYV4); test: Cdk12 [high ATP] in vitro kinase activity assay; type: biochemical; settings: physiological ATP concentrations (1 mM ATP), 50 μM compound
T2 construct: Cdk12 (696-1,082)/CycK (1-267) protein complex
T2 sequence (Q9NYV4 696-1082 limits assumed): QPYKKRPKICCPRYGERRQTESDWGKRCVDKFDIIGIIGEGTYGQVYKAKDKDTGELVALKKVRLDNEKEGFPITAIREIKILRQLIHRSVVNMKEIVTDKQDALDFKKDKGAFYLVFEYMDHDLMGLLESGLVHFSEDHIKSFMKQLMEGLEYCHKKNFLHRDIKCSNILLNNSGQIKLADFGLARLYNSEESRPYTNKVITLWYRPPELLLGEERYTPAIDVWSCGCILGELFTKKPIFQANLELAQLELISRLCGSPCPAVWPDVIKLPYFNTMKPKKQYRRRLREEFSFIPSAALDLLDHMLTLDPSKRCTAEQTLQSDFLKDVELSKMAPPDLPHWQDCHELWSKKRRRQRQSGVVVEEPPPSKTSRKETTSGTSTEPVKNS
T2 sequence (O75909 1-267 partner limits assumed): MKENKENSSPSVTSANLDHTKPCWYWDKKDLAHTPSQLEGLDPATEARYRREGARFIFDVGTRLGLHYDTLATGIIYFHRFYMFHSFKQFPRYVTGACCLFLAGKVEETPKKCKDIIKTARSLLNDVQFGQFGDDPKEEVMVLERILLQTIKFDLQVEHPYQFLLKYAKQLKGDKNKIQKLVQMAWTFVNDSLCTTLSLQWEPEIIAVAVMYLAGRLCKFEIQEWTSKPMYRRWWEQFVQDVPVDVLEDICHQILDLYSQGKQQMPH
Method: This assay on recombinant proteins allows assessment of the extent of inhibition of CDK12 kinase activity of compounds. The added benefit of Cyclin K degradation as opposed to CDK12 inhibition alone can thereby be estimated. The observed disconnect between CDK12 inhibition and efficacy in the KBM7 cell viability assay supports an important contribution of Cyclin K degradation to the therapeutic effect.
Kinase reactions (50 μl) were carried out with recombinant highly purified proteins. Cdk12 (696-1,082)/CycK (1-267) protein complex (0.5 μM) was preincubated with 50 μM of compound and vehicle control (DMSO) for 10 minutes at room temperature in kinase buffer (40 mM Tris pH 7.5, 20 mM MgCl2, 0.1 mg/ml BSA) prior the addition of pS7-CTD substrate peptide (Ac-YSPTSP-pS-YSPTSP-pS-YSPTSP-pS-Y-PEG2-RR-amide, 95% purity, Biosyntan, Germany) (100 μM) and further 10 min incubation at room temperature. Cold ATP (to a final concentration of 1 mM) was added, and the reaction mixture was incubated for 60 min at 30° C. at 500 rpm. Kinase activity was determined using the ADP-Glo™ Kinase Assay (Promega). The luminescence signal was measured using the multimode plate reader EnVision 2105 (Perkin Elmer).
Uniprot protein codes: (Cdk12) Q9NYV4, (CycK) 075909

KBM7 cells (wild-type) = test: KBM7 CTG EC50 assay (UBE2M wild-type); type: cell-based, human
Procedure, shortened: as §1

activity in NanoBRET assay (ternary complex formation), in words [2]: good activity | NanoBRET EC50 Activity Class ([2]; 10-point titration from 20 μM, HEK293T): B (0.50 μM≤EC50≤0.25 μM) | DC50 (CCNK): ≤ 100 nM | NanoBRET fold-change Activity Class [3]: C (2-3 fold increase) | Cdk12 inhibition, in words [4]: weak Cdk12 inhibition
SMILES: O=C(Cc1cnc2ccccc2c1)Nc1ncc(C(F)(F)F)s1 [Example 3-36, 2-(quinolin-3-yl)-N-(5-(trifluoromethyl)thiazol-2-yl)acetamide]
pEC50 [1]: ≥ 6.60 | pEC50 (KBM7 cells (wild-type); Homo sapiens, KBM-7, 72 h incubation, CellTiter-Glo, read-out: KBM7 CTG EC50 (UBE2M wild-type) Activity Class): ≥ 6.60 | activity in KBM7 cytotoxicity assay, in words (KBM7 cells (wild-type); KBM7): extremely potent activity
